In US9623031B2, “Compositions, methods and kits for treating cancer” (priority 2011, dated 2017):
“Also recorded” adds a separate entry of the source. Blank lines part the entries; values can stand above or below the molecule they belong to.

Legend:
[1] = system: Human unfractionated bone marrow cells; test: Colony formation of normal human bone marrow cells in methylcellulose; conditions: methylcellulose with multiple growth factors, 12 days
Description: Human unfractionated bone marrow cells (5×10^5 per well) were plated in methylcellulose complete media containing IL-3, GM-CSF, G-CSF, SCF and Epo supplemented with the indicated concentrations of drugs. Total colonies were counted after 12 days.

[2] = system: BCR-ABL^+LSC (Kit^+Sca1^+Lin^−GFP^+); test: Apoptosis of BCR-ABL+ LSCs treated ex vivo (annexin V, flow cytometry); type: cell-based, mouse
Description: Apoptosis. Apoptosis of LSCs was performed using annexin V as described below in Supplementary Information and Methods.
Apoptosis. The LSCs were diluted in DMEM, resuspended using a 16-gauge needle, and collected by centrifugation. 1×10^5 cells were resuspended in 200 μl of binding buffer (0.1 M HEPES with 1.4 M NaCl, 25 mM CaCl2, pH 7.4). Annexin V FITC (BD Biosciences) was incubated with cells for 15 min on ice followed by flow cytometric analysis.
The ability of CyPGs derived from arachidonic acid (2 series PGs) to induce apoptosis was tested in cultures of LSCs from FV infected mice and in the murine CML model. […] 15d-PGJ2 is known as a PPAPγ agonist. […] In FIG. 7C Δ^12-PGJ3, 15d-PGJ2 or 9,10-dihydro-15d-PGJ2 are tested for their ability to induce apoptosis in a murine CML model. […] The cells were stained with annexin V-FITC and analyzed by flow cytometry. Representative of N=4. […] Inset: Effect of rosiglitazone on the apoptosis of LSC. Rosiglitazone (0.1-2.0 μM) was incubated with LSC in the culture media for 36 h as described earlier and the cells were subjected to annexin-V staining followed by flow cytometry. […] LSC were treated ex vivo with indicated concentrations of each compound for 36 h.
(§1) Following 36 h of incubation, apoptotic cells were quantified by annexin V staining. […] In a related study to address if Δ^12-PGJ3 treatment would cause any degranulation of granulocytes, a rat basophilic cell line ([…]) was treated with 100 nM Δ^12-PGJ3 and the degranulation was followed by quantitating the release of histamine and a second marker of degranulation, hexoseaminidase.
In this experiment, 500,000 BCR-ABL+ LSCs were plated in a 24-well plate followed and were treated with 25 nM PGD2Me or 100 nM ZK118182 (both are agonists of DP) for 24 h. GFP^+ cells were analyzed by flow cytometry. These agonists were purchased from Cayman Chemicals, MI.

[3] = system: p53; test: p53 expression in BCR-ABL+ LSCs treated ex vivo; type: cell-based, mouse
[4] = system: p53; test: p53 expression in FV-LSCs treated ex vivo (RT-PCR, nuclear extracts); type: cell-based, mouse
[5] = system: normal HSCs (MSCV-GFP^+HSC); test: Effect on normal HSCs (MSCV-GFP+ HSC) treated ex vivo; conditions: antagonists/inhibitor 10 nM; Δ^12-PGJ3 25 nM; 36 h
[6] = system: primary human AML cells; LSCs (CD34+CD38−CD123+); test: Apoptosis of primary human AML cells and AML LSCs (annexin V); type: cell-based; conditions: CAY10471 10 nM pretreatment, then Δ^12-PGJ3 100 nM
Description: In this experiment, 110,000/well primary AML cells were cultured in above specified media for 6 and 12 hrs. Cells were collected and washed once with ice cold PBS. The cells were resuspended in 200 ul 1× Apoptosis buffer with annexin-V PE to all tubes. The cells were washed in PBS and resuspended in 600 ul PBS and transfer into flow tubes and analyzed for apoptosis (Annexin V+ cells) on FC-500. […] In this experiment, 110,000/well AML cells were cultured in earlier mentioned media for 6 and 12 hrs. Cells were collected and washed once in PBS and resuspended in 200 ul PBS and blocked with FC receptor antibody 10 mins RT. The following antibodies were added: CD38, CD123, CD34, CD117 (BD bioscience) for 1 hr on ice. Cells were washed in PBS once and resuspended in 200 ul of apoptotic buffer, and annexin V was added and incubated for 15 mins. Apoptotic cells (Annexin V+ cells) were counted by flow cytometry. […] Cells were collected and washed once in PBS and resuspended in 200 ul PBS and blocked with FC receptor antibody 10 mins RT. The following antibodies were added: CD38, CD123, CD34 (BD bioscience) for 1 hr on ice. Cells were washed in PBS once and resuspended in 200 ul of apoptotic buffer, and annexin V was added and incubated for 15 mins. Apoptotic cells (Annexin V+ cells) were counted by flow cytometry.
Referring to the results shown in FIG. 16, these experiments were performed with primary AML stem cells isolated from a patient. […] In an identical experiment, the cells were also treated with a synthetic DP agonist, ZK118182 (100 nM). Apoptosis of cells (by annexin V staining) was measured using flow cytometry.

[7] = system: rat basophilic cell line (RBL-23); test: Degranulation of basophilic cells (histamine and hexoseaminidase release); conditions: Δ^12-PGJ3 100 nM
Description: as §1

[8] = system: FV-LSCs (M34^+Kit^+Sca1^+); test: Apoptosis of FV-LSCs treated ex vivo (annexin V, flow cytometry); type: cell-based, mouse; conditions: 25 nM, 36 h, annexin V
Description: On day 14 after infection, spleens were isolated and a single cell suspension of spleen cells was generated. The cells were filtered through a 70 μm sterile filter and flow-through cells were resuspended in RBC lysis buffer followed by centrifugation. Leukemia stem cells were isolated by FACS. Spleen cells were labeled with anti-Kit, Sca1 (BioLegend, San Diego, Calif.) and M34 antibodies. […] As indicated M34^+Kit^+Sca1^+ cells were cultured in Methocult media (Stem Cell Technologies Vancouver BC) M3334 supplemented with 200 ng/ml Sonic Hedgehog (Shh), 15 ng/ml bone morphogenetic protein-4 (BMP4) (both from R&D Systems Minneapolis, Minn.), and 50 ng/ml stem cell factor (SCF; Peprotech).
The cells were stained with annexin V-FITC and analyzed by flow cytometry. […] Means±s.e.m. *P<0.001 compared to vehicle (PBS). […] Inset: Effect of rosiglitazone on the apoptosis of LSC. Rosiglitazone (0.1-2.0 μM) was incubated with LSC in the culture media for 36 h as described earlier and the cells were subjected to annexin-V staining followed by flow cytometry. […] LSC were treated ex vivo with indicated concentrations of each compound for 36 h. Mean±s.e.m. shown *P<0.001.

[9] = system: FV-LSCs transplanted into BALB/c-Stk^−/− mice
Description: Transplant of FV-LSCs into BALB/c-Stk^−/− mice: FV-LSCs were generated as described above. 2.5×10^5 FV-LSCs were transplanted into BALB/c-Stk^−/− mice by retro-orbital injection. Six weeks after transplant the mice were treated with CyPGs or vehicle control as indicated in the text.
Treatment of Mice with PGs: Mice with FV-induced erythroleukemia or MIGR-BCR-ABL induced CML were treated on the indicated days with CyPGs. Mice were treated with a daily intraperitoneal injection of Δ^12-PGJ3 (0.01-0.1 mg/kg), 15d-PGJ2 (0.1 mg/kg), or 9,10-dihydro-15d-PGJ2 (0.1 mg/kg) for 7 days. All three compounds were formulated with hydroxypropyl-β-cyclodextrin (30% w/v; Sigma; vehicle control).
Stk^−/− mice are resistant to Friend virus infection so the leukemia developed by the transplanted mice is result of the transplanted LSCs and not FV infection. […] LSCs sorted from the spleens of FV-infected mice were transplanted into Stk^−/− mice (on a Balb/c background). After 6 weeks such mice were treated daily for 1 week with vehicle (hydroxypropyl-β-cyclodextrin), 15d-PGJ2 (0.05 mg/kg), or 9,10-dihydro-15d-PGJ2 (0.05 mg/kg) by intraperitoneal injection. The mice were sacrificed 51 days post LSC transplantation for analysis. An analysis of spleens of mice comparing splenomegaly in vehicle, 15d-PGJ2, or 9,10-dihydro-15d-PGJ2 treated transplanted mice was performed. Spleen weight compared to control (untransplanted mice) after treatment and WBC counts in the peripheral blood of the mice after treatment were examined, and a flow cytometric analysis of the spleen of untransplanted and LSC transplanted mice after treatment was performed. All data were mean±s.e.m. *p<0.05 compared to control or 9,10-dihydro-15d-PGJ2 treated groups. N=5 per group.

[10] = system: Friend virus (FV)-induced erythroleukemia; test: FV-induced erythroleukemia in FV-infected mice, intraperitoneal treatment; type: in vivo, mouse
Excerpt: FV-induced erythroleukemia and production of FV leukemia stem cells (FV-LSCs): BALB/c mice were infected with FV as previously described (Subramanian A et al., J Virol. 2008; 82:382-393; Harandi O F et al., J Clin Invest. 2010; 120:4507-4519). On day 14 after infection, spleens were isolated and a single cell suspension of spleen cells was generated. The cells were filtered through a 70 μm sterile filter and flow-through cells were resuspended in RBC lysis buffer followed by centrifugation. Leukemia stem cells were isolated by FACS. Spleen cells were labeled with anti-Kit, Sca1 (BioLegend, San Diego, Calif.) and M34 antibodies. M34 is a monoclonal antibody that recognizes the envelope protein of SFFV (Chesebro B et al., Virology. 1981; 112:131-144) and was used as previously described (Subramanian A et al., J Virol. 2008; 82:382-393). As indicated M34^+Kit^+Sca1^+ cells were cultured in Methocult media (Stem Cell Technologies Vancouver BC) M3334 supplemented with 200 ng/ml Sonic Hedgehog (Shh), 15 ng/ml bone morphogenetic protein-4 (BMP4) (both from R&D Systems Minneapolis, Minn.), and 50 ng/ml stem cell factor (SCF; Peprotech). For CFU-FV assays, cells were plated in methylcellulose media containing fetal calf serum, but lacking added growth factors as previously described (Mager D L et al., Proc Natl Acad Sci USA. 1981; 78:1703-1707).
Complete blood counts of mice treated with Δ^12-PGJ3 (0.05 mg/kg) were examined. There is no difference in treated mice and untransplanted control mice in terms of white blood cell counts, red blood cell counts or platelet counts. Changes in hematological parameters in FV-infected mice upon treatment with CyPGs were examined. FV-infected Balb/c mice were treated with Δ^12-PGJ3 (0.05 mg/kg) intraperitoneally for 7 d following which the mice were sacrificed and hematological parameters were analyzed on an Advia blood analyzer. FV-infected Δ^12-PGJ3 treated mice were compared to infected vehicle controls. N=5 per group, all data are means±s.e.m. *P<0.05. 3% w/v hydroxypropyl-3-cyclodextrin was used as a vehicle in in vivo experiments. Spleen sizes of FV-infected mice that were treated with either vehicle, 9,10-dihydro-15d-PGJ2 (0.05 mg/kg), or 15d-PGJ2 (0.05 mg/kg) were examined; N=3 pre group. Hematological parameters of Balb/c uninfected, infected, and 15d-PGJ2 treated mice were examined. N=5 per group. All data were means±s.e.m. *P<0.05.
FV-LSC were targeted by 15d-PGJ2 in the spleen of FV-infected mice. FV-infected mice were treated with 15d-PGJ2 or 9,10-dihydro-15d-PGJ2 at 0.05 mg/kg for 7 d. The splenic LSC (M34^+Sca1^+Kit^+) cells were analyzed by flow cytometry on day 14 post infection. […] Uninfected and infected vehicle controls were used for comparison. N=3; *P<0.05. […] The colonies were counted 10-14 days after plating. N=3 mice per group, *p<0.05.

- total colonies of human bone marrow cells [1]: had no effect
SMILES: CC(C)OC(=O)COCC=CCC1C(Cl)CC(O)C1C=CC(O)C1CCCCC1 (stereo not drawn) [ZK118182, [[4-[5R-chloro-2Z-[3R-cyclohexyl-3 S-hydroxy-1R-propenyl]-3 S-hydroxycyclopentyl]-2R-butenyl]oxy]-acetic acid, isopropyl ester]
- apoptosis of BCR-ABL+ LSCs by synthetic DP agonists (GFP+ cells) ([2]; 25 nM PGD2Me or 100 nM ZK118182, 24 h): can induce apoptosis of LSCs

SMILES: O=c1cc(-c2cccc3c2Sc2ccccc2S3)oc(N2CCOCC2)c1 [MTPO, 2-Morpholin-4-yl-6-thianthren-1-yl-pyran-4-one]
- block of Δ^12-PGJ3-induced p53 expression by ATM inhibitor ([3]; pretreatment): blocked
- block of Δ^12-PGJ3-dependent p53 expression by ATM inhibitors ([4]; preincubation, then Δ^12-PGJ3): blocked the CyPG-dependent expression of p53
- block of Δ^12-PGJ3-induced apoptosis by ATM inhibitor ([2]; pretreatment, then 25 nM Δ^12-PGJ3): blocked the effect of Δ^12-PGJ3 on apoptosis
- viability of MSCV-HSC control cells [5]: not affected

SMILES: CN(C1CCc2c(c3ccccc3n2CC(=O)O)C1)S(=O)(=O)c1ccc(F)cc1 (stereo not shown) [CAY10471, reference compound]
- block of Δ^12-PGJ3-induced apoptosis of LSCs [6]: completely blocked the apoptosis
- inhibition of Δ^12-PGJ3-induced apoptosis by DP antagonist ([2]; antagonist 10 nM, 2 h pretreatment, then 25 nM Δ^12-PGJ3, 36 h): inhibited
- viability of MSCV-HSC control cells [5]: not affected

SMILES: C[C@H](CCC(=O)O)C[C@H](C)C[C@H](C)C(=O)/C=C(\O)[C@H](C)C[C@H](C)C/C=C/[C@@H](C)[C@@H](O)[C@@H](C)[C@@H](O)C[C@@H]1CC[C@@](C)([C@H]2CC[C@@](C)([C@@H](C)O)O2)O1 [ionomycin]
- degranulation (release of histamine and hexoseaminidase) [7]: caused extensive production of histamine and hexoseaminidase

SMILES: CCCCC/C=C\C=C1\C(=O)CC[C@@H]1C/C=C\CCCC(=O)O [9,10-dihydro-15d-PGJ2]
- p53 mRNA ([3]; 25 nM ex vivo): ineffective
- apoptosis of FV-LSCs [8]: fail to induce apoptosis; also recorded: no apoptosis
- hematocrit, WBC counts and reticulocyte counts ([9]; FV-induced leukemia, FIG. 3C): had no effect on any parameter tested
- LSCs (M34+Sca1+Kit+) in the spleen ([9]; flow cytometry after 1 week i.p. treatment): did not have any effect on their viability
- splenomegaly ([9]; Δ^12-PGJ3 0.025 and 0.05 mg/kg, comparators 0.05 mg/kg, i.p. 1 week): nor alleviated splenomegaly
- p53 expression at transcript level ([4]; 10 or 25 nM, 12 h): ineffective
- apoptosis of Sca1+GFP+Kit+ BCR-ABL+LSC from spleen ([2]; 25-1000 nM, 36 h): had no effect; also recorded: ineffective even at high concentrations up to 1 μM
- LSCs (Sca1+Kit+M34+) in the spleen ([10]; 0.05 mg/kg i.p. 7 d, flow cytometry day 14 post infection): ineffective
- splenomegaly, comparator CyPGs ([10]; i.p. 7 days): did not have any effect on the amelioration of splenomegaly
